The values that follow come from patent US12247029B2, “Heterocyclic compounds as class II phosphoinositide 3-kinase inhibitors” (Forschungsverbund Berlin e.V., priority 2018, dated 2025).

One test has as its target PI3KC2α Δ1-298 (Homo sapiens (Human), UniProt O00443). The test can be described thus: ADP-Glo kinase assay with purified PI3KC2α Δ1-298. Format: biochemical. In outline:
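Purified human PI3KC2α Δ1-298 (10 ng/μl) with liver PI (200 μM) and ATP (40 μM), 20 min kinase reaction; ADP formed read by ADP-Glo luminescence after 40 min ATP depletion. Screening compounds at 10 μM; reactions lacking PI served as negative control.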
In general terms: ADP-Glo first removes unused ATP, then detects ADP through luciferase.

For test [1], the system named is HeLa cells overexpressing SNX9 AS. As to the kind of experiment: SNX9 AS membrane recruitment / tubulation. The format is cell-based. Particulars: eGFP-SNX9 AS OE HeLa cells, vs DMSO. As for the experimental part: (§1) FIG. 8. Inhibition of PI3KC2α in living cells upon treatment with C2a_inh1-3. (A) PI3KC2α inhibition impairs CCP dynamics analyzed by TIRF microscope. eGFP-clathrin expressing Cos7 cells were treated by DMSO or C2a_Inh3 for 1 h and imaged by TIRF microscope. […] (B) C2a_Inh3 treatment of eGFP-SNX9 AS OE HeLa cells. […] Scale bar, 10 μm or 2 μm (inset). (C) Quantification of the results depicted in B, indicating the percentage of cells containing membrane tubules (N=3, statistical analysis with one-way ANOVA, **** is for p<0.0001).
SNX9 is a main effector protein of PI3KC2α dependent PI(3,4)P2 production. […] HeLa cells overexpressing SNX9 AS were treated with C2a_inh_3 or DMSO as a control.

In test [2] the test system is commercially available lipid kinases and the related mTOR protein kinase. The test can be described thus: In vitro kinase profiling at fixed 10 μM (lipid kinase panel, mTOR, general kinase panel). The format is biochemical. Particulars: 10 μM compound; listed as C2a_Inh3. As for the experimental part: FIG. 7. In vitro kinase activity in presence of 10 μM compounds. (A-C) The specificity of initial screening hits and C2a_inh1-3 was validated by incubation with available lipid kinases. […] (D) Selectivity may be modulated by modifying the R11 substituent of Formula 1. […]
We firstly analyzed the specificity of C2a_inh1 (dihydropteridinone derived compound) and other initial screening hits (eg. quinolone derived compound) in vitro. […]

Test [3] concerns eGFP-clathrin expressing Cos7 cells. As to the kind of experiment: CCP dynamics by TIRF microscopy. The format is cell-based. Particulars: treatment for 1 h, vs DMSO. As for the experimental part:
as §1
To test if the validated compounds are cell membrane permeable and, thus, can be used as medicaments and in cell-based experiments, the inventors analyzed clathrin-mediated endocytosis of transferrin in the presence of PI3KC2α inhibitors or DMSO as a solvent control. […] Further, the inventors monitored the CCP dynamics in cells with PI3KC2α inhibitor (C2a_Inh3) treatment for 1 h.

[4] abbreviates: read-out: IC50 (PI3KC2α; ADP-Glo™ assay).

“Also recorded” adds a separate entry of the source. Like-named read-outs stand apart in the source and are kept apart here.

Sequence of PI3KC2α Δ1-298 (O00443 299-1686): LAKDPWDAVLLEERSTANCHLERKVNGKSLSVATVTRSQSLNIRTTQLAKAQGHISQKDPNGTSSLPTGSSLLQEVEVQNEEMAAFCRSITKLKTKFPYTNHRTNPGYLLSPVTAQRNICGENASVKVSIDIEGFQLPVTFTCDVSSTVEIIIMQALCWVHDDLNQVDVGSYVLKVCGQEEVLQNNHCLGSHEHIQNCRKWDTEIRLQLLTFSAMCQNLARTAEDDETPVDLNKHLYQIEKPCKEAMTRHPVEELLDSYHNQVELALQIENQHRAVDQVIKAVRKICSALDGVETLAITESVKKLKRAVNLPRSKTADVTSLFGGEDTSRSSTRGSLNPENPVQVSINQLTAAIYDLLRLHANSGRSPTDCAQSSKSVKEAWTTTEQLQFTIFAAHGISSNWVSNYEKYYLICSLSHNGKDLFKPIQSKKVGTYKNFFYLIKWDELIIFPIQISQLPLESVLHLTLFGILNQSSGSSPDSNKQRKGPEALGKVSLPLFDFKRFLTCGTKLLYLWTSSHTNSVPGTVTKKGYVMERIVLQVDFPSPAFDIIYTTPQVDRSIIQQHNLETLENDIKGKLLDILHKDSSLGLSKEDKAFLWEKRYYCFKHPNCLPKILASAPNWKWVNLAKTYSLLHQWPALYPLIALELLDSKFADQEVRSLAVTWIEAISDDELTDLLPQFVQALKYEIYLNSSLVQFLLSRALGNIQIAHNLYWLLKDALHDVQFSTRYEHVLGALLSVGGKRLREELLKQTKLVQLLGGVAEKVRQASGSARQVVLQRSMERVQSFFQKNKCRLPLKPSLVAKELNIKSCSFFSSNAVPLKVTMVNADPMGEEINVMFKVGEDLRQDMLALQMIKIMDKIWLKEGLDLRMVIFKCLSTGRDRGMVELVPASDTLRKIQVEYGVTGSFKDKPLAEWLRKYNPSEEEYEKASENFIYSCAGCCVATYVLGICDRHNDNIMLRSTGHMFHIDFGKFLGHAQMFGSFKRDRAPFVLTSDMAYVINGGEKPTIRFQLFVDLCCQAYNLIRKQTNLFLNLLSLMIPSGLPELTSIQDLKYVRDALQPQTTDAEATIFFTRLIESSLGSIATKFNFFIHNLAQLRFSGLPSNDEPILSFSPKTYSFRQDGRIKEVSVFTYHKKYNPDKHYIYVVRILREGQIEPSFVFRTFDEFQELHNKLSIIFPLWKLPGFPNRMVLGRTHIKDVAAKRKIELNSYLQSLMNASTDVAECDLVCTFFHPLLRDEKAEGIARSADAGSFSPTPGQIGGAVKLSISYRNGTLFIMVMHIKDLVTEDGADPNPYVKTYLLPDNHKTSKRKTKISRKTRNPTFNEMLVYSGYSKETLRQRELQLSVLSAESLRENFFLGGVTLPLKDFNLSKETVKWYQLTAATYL

Turning to `O=C(CSc1nc2nccnc2c(=O)n1CCc1ccccc1)Nc1nccs1` [Example Compound 11, 2-((4-Oxo-3-phenethyl-3,4-dihydropteridin-2-yl)thio)-N-(thiazol-2-yl)acetamide], the IC50 – broadly, the concentration that inhibits the measured activity by half – was 100 nM on PI3KC2α Δ1-298 (listed as C2a_Inh3, read-out: IC50 for PI3KC2α inhibition) and 100 nM on PI3KC2α Δ1-298 (setting [4]). In addition, the entries for the “SNX9 AS recruitment to membrane / membrane tubules” value in test [1] (listed as C2a_Inh3) and in test [1] (listed as C2a_inh_3) were “reduced the recruitment of SNX9 to the membrane” and “remained largely cytosolic”, respectively. The “specificity in kinase panel” value in test [2] is “specifically inhibited class II PI3Ks; also recorded: relatively high off-targeting activity towards other class II kinase isoforms”. Also, the “CCP lifetime (CCP dynamics)” value in test [3] (listed as C2a_Inh3) is “increased CCP-lifetimes”; in test [3] (listed as C2a_Inh_3), “increase of lifetime”. Turning to `Cc1nnc(NS(=O)(=O)c2ccc(-n3c(SCC(=O)Nc4nccs4)nc4nccnc4c3=O)cc2)s1` [Example Compound 80, 2-((3-(4-(N-(5-Methyl-1,3,4-thiadiazol-2-yl)sulfamoyl)phenyl)-4-oxo-3,4-dihydropteridin-2-yl)thio)-N-(thiazol-2-yl)acetamide], the IC50 at PI3KC2α Δ1-298 (setting [4]) was 280 nM. For `CNC(=O)c1ccc(-n2c(SCC(=O)Nc3nccs3)nc3nccnc3c2=O)cc1` [Example Compound 81, 4 N-Methyl-4-(4-oxo-2-((2-oxo-2-(thiazol-2-ylamino)ethyl)thio)pteridin-3(4H)-yl)benzamide], the IC50 on PI3KC2α Δ1-298 (setting [4]) was found to be 620 nM.

Consider `CNC(=O)c1ccc(-n2c(SCc3nc4ccccc4[nH]3)nc3nccnc3c2=O)cc1` [Example Compound 82, 4-(2-(((1H-Benzo[d]imidazol-2-yl)methyl)thio)-4-oxopteridin-3(4H)-yl)-N-methylbenzamide], for which the 50% inhibitory concentration (IC50) at PI3KC2α Δ1-298 (setting [4]) came to 610 nM. On the same count and under the same terms, the same measure for `N#Cc1ccc(-n2c(SCC(=O)Nc3nccs3)nc3nccnc3c2=O)cc1` [Example Compound 85, 2-((3-(4-Cyanophenyl)-4-oxo-3,4-dihydropteridin-2-yl)-thio)-N-(thiazol-2-yl)acetamide]: 1200 nM; for `N#Cc1ccc(-n2c(SCc3nc4ccccc4[nH]3)nc3nccnc3c2=O)cc1` [Example Compound 86, 4-(2-(((1H-Benzo[d]imidazol-2-yl)methyl)thio)-4-oxopteridin-3(4H)-yl)benzonitrile]: 1100 nM. The same measure, in the same setting: the same measure for `O=C(CSc1nc2nccnc2c(=O)n1C1Cc2ccccc2C1)Nc1nccs1` [Example Compound 87, 2-((3-(2,3-Dihydro-1H-inden-2-yl)-4-oxo-3,4-dihydropteridin-2-yl)thio)-N-(thiazol-2-yl)acetamide]: 170 nM; for `O=c1c2nccnc2nc(SCc2nc3ccccc3[nH]2)n1C1Cc2ccccc2C1` [Example Compound 88, 2-(((1H-Benzo[d]imidazol-2-yl)methyl)thio)-3-(2,3-dihydro-1H-inden-2-yl)pteridin-4(3H)-one]: 130 nM.

On to `C[C@@H](c1ccccc1)n1c(SCC(=O)Nc2nccs2)nc2nccnc2c1=O` [Example Compound 89, (S)-2-((4-Oxo-3-(1-phenylethyl)-3,4-dihydropteridin-2-yl)-thio)-N-(thiazol-2-yl) acetamide], for which, on PI3KC2α Δ1-298 (setting [4]), the IC50 is 1700 nM. Still for that read-out and setting: the same measure for `C[C@@H](c1ccccc1)n1c(SCc2nc3ccccc3[nH]2)nc2nccnc2c1=O` [Example Compound 90, (S)-2-(((1H-Benzo[d]imidazol-2-yl)methyl)thio)-3-(1-phenylethyl)pteridin-4(3H)-one]: 16000 nM; for `COC(=O)[C@H]1C[C@H](n2c(SCC(=O)Nc3nccs3)nc3nccnc3c2=O)C1` [Example Compound 91, trans-Methyl 3-(4-oxo-2-((2-oxo-2-(thiazol-2-ylamino)ethyl)thio)pteridin-3(4H)-yl)cyclobutane-1-carboxylate]: 370 nM; for `COC(=O)[C@H]1C[C@H](n2c(SCc3nc4ccccc4[nH]3)nc3nccnc3c2=O)C1` [Example Compound 92, trans-Methyl-3-(2-(((1H-benzo[d]imidazol-2-yl)methyl)thio)-4-oxo-pteridin-3(4H)-yl)cyclobutane-1-carboxylate]: 320 nM. Still for that read-out and setting: under `CC(C)(C)OC(=O)N1CCC(n2c(SCC(=O)Nc3nccs3)nc3nccnc3c2=O)CC1` [Example Compound 93, tert-Butyl 4-(4-oxo-2-((2-oxo-2-(thiazol-2-ylamino)ethyl)thio)pteridin-3(4H)-yl)piperidine-1-carboxylate] stands 3600 nM. The same measure, in the same setting: the same measure for `CC(C)(C)OC(=O)N1CCC(n2c(SCc3nc4ccccc4[nH]3)nc3nccnc3c2=O)CC1` [Example Compound 94, tert-Butyl 4-(2-(((1H-benzo[d]imidazol-2-yl)methyl)thio)4-oxopteridin-3(4H)-yl)piperidine-1-carboxylate]: 1200 nM; for `O=C(CSc1nc2nccnc2c(=O)n1CCc1ccc(O)cc1)Nc1nccs1` [Example Compound 95, 2-((3-(4-Hydroxyphenethyl)-4-oxo-3,4-dihydropteridin-2-yl)thio)-N-(thiazol-2-yl)acetamide]: 210 nM. `O=c1c2nccnc2nc(SCc2nc3ccccc3[nH]2)n1CCc1ccc(O)cc1` [Example Compound 96, 2-(((1H-Benzo[d]imidazol-2-yl)methyl)thio)-3-(4-hydroxyphenethyl)pteridin-4(3H)-one]: the IC50 at PI3KC2α Δ1-298 (setting [4]) was found to be 100 nM. On to `O=C(CCc1nc2nccnc2c(=O)n1CCc1ccccc1)Nc1ccccc1` [Example Compound 100, 3-(4-Oxo-3-phenethyl-3,4-dihydropteridin-2-yl)-N-phenylpropanamide], for which the inhibition (usually the share of the control response that was lost under treatment) at 10 µM on PI3KC2α Δ1-298 came to 31%. Same read-out and setting: the same measure for `O=C(CCc1nc2nccnc2c(=O)n1CCc1ccccc1)NCc1ccccc1` [Example Compound 101, N-Benzyl-3-(4-oxo-3-phenethyl-3,4-dihydropteridin-2-yl)propanamide]: 28%; for `O=C(CCc1nc2nccnc2c(=O)n1CCc1ccccc1)NCCc1ccccc1` [Example Compound 102, 3-(4-Oxo-3-phenethyl-3,4-dihydropteridin-2-yl)-N-phenethylpropanamide]: 36%.
